Experimental data: ChEMBL document CHEMBL1201862, “PubChem BioAssay data set” (2004)
The source made the active and inactive calls.

Assays:
[1] = biological target: Delta-type opioid receptor (Homo sapiens, UniProt P41143); test: Counterscreen for agonists of heterodimerization of the mu 1 (OPRM1) and delta 1 (OPRD1) opioid receptors: Luminescence-based cell-based high throughput dose response assay to identify agonists of OPRD1 homodimerization. [Related pubchem assays (depositor defined):AID504326, AID504355, AID504692, AID504904, AID504905]; type: functional
Sequence of Delta-type opioid receptor (P41143 whole entry): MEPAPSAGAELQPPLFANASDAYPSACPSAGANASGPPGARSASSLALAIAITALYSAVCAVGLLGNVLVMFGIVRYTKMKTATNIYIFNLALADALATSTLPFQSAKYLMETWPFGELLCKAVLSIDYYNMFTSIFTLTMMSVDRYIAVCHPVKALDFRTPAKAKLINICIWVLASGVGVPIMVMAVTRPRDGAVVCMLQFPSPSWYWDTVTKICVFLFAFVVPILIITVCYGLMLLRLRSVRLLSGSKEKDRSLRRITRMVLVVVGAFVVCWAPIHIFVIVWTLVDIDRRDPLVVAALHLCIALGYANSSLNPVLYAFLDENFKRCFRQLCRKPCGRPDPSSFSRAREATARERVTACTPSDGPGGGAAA

[2] = system: INS1; test: beta cell apoptosis inhibitors, cytokine rescue, dose response, luminescence, retest (AID 449756); type: functional, cell-based; conditions: Rattus norvegicus;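 further: cell death triggered by IL-1 beta plus TNF-alpha plus IFN-gamma mixture; protective hits raise ATP signal compared with cytokine alone wells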
[3] = biological target: Mu-type opioid receptor (Homo sapiens, UniProt P35372); test: Counterscreen for agonists of heterodimerization of the mu 1 (OPRM1) and delta 1 (OPRD1) opioid receptors: Luminescence-based cell-based high throughput dose response assay to identify agonists of OPRM1 homodimerization.; type: functional;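 further: U2OS cells expressing OPRM1 and beta-arrestin as split beta-galactosidase partners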
Sequence of Mu-type opioid receptor (P35372 whole entry): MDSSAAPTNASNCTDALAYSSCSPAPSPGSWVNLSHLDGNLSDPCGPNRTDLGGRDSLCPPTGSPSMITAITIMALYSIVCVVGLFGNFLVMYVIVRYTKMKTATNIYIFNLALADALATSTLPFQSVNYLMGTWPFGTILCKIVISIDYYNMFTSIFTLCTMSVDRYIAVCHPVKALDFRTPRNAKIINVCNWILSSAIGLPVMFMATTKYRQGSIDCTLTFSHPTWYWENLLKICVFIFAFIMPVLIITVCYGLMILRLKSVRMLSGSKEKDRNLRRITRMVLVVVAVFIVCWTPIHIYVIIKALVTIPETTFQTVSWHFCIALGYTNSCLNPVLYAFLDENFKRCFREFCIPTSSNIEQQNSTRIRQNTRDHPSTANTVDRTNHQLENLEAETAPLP

[4] = cytotoxicity toward NIH3T3 fibroblasts, dose response, counter-screen, cell-based, ATP luminescence, mouse fibroblasts (AID 2010); type: functional;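 further: cells exposed to compound for about 90 hours before reading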
[5] = biological target: 5-hydroxytryptamine receptor 5A (Homo sapiens, UniProt P47898); test: Counterscreen for agonists of OPRM1-OPRD1 heterodimerization: luminescence-based cell-based high throughput dose response assay to identify agonists of 5-hydroxytryptamine (serotonin) 5A receptor (HTR5A). [Related pubchem assays (depositor defined):AID504326, AID504355, AID504692, AID504904, AID504905]; type: functional
Sequence of 5-hydroxytryptamine receptor 5A (P47898 whole entry): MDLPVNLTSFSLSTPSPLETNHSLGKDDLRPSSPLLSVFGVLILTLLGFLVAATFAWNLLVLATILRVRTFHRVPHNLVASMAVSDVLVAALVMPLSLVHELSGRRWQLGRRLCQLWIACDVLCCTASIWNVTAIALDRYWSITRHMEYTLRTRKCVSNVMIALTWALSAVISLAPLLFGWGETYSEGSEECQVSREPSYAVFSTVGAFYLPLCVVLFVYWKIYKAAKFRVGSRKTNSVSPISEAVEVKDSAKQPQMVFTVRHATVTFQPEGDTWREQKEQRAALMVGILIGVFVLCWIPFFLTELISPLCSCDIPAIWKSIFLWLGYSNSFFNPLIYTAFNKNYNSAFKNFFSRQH

[6] = biological target: T1, Sentrin-specific protease 8 (Homo sapiens, UniProt Q96LD8); type: functional;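 further: luminescence read-out of SENP8 inhibition, dose-response confirmation following an ultra-high-throughput screen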
T1 sequence (Q96LD8 whole entry): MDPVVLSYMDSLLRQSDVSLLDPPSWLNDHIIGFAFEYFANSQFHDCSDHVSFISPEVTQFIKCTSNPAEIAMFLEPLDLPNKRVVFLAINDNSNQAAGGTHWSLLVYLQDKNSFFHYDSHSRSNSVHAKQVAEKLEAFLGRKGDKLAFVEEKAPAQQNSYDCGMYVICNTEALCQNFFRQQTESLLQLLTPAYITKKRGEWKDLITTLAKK

[7] = biological target: Phospholipase A2 (Homo sapiens, UniProt P04054); type: functional;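 further: confirmatory dose-response counterscreen on phospholipase A2, testing hits that came from an ultra-high-throughput screen for ATG4B inhibitors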
Sequence of Phospholipase A2 (P04054 whole entry): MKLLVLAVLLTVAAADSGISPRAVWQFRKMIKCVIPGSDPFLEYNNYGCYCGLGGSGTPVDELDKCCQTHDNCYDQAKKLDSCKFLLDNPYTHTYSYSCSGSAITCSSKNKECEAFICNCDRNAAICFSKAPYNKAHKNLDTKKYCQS

[8] = biological target: T2, Sentrin-specific protease 7 (Homo sapiens, UniProt Q9BQF6); type: functional;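 further: Luminescence-based dose-response confirmation of ultra-high-throughput screening hits, measuring inhibition of SENP7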
T2 sequence (Q9BQF6 whole entry): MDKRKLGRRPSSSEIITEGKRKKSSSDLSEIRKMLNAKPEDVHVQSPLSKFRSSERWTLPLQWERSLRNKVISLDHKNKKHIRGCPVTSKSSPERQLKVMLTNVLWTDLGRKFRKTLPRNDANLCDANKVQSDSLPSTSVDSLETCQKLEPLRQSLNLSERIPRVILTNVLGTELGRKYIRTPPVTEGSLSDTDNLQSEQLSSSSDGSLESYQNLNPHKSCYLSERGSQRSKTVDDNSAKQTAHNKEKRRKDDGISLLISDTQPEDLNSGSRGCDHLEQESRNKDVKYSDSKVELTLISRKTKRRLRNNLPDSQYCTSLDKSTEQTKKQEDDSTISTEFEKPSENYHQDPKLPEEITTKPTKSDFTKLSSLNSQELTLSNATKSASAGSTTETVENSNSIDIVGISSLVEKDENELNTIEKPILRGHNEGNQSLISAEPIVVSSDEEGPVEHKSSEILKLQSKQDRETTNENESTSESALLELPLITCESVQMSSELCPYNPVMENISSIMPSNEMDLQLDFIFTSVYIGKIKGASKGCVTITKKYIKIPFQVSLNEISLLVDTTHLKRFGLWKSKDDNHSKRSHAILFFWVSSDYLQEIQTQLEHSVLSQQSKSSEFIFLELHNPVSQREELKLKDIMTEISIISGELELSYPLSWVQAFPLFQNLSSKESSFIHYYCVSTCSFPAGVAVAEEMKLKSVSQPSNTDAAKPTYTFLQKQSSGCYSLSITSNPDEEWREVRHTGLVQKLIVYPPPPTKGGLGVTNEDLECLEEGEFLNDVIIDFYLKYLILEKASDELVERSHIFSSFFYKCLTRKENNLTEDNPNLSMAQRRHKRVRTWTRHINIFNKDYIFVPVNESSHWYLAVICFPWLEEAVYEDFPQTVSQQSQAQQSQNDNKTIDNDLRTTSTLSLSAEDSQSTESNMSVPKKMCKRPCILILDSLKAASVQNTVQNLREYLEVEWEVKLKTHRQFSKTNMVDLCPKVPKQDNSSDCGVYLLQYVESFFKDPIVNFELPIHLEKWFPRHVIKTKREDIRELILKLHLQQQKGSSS

[9] = biological target: T3, Bcl-2-related protein A1 (Mus musculus, UniProt Q07440); test: Bfl-1 inhibitors, primary screen, biochemical, fluorescence polarization, FITC-Bid, mouse (AID 432)
T3 sequence (Q07440 whole entry): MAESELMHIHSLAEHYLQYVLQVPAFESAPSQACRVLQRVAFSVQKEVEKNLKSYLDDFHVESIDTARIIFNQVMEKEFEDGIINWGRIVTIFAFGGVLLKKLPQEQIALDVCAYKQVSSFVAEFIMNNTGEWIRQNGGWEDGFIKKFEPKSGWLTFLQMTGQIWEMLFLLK

[10] = biological target: Mothers against decapentaplegic homolog 3 (Homo sapiens, UniProt P84022); test: SMAD3 transcription factor inhibitors, dose response (AID 715); type: functional
Sequence of Mothers against decapentaplegic homolog 3 (P84022 whole entry): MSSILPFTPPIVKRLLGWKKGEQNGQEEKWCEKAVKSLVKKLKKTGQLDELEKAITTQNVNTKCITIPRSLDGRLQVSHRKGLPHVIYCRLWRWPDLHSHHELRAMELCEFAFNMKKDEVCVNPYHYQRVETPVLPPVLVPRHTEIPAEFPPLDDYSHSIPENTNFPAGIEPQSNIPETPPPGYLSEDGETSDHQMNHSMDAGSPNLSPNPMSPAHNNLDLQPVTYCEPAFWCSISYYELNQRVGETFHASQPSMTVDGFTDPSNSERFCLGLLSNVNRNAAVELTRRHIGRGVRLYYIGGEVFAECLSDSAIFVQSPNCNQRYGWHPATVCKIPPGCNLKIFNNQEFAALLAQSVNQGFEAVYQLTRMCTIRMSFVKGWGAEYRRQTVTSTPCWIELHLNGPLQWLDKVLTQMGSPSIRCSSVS

[11] = biological target: Beta-lactamase (Salmonella choleraesuis (strain SC-B67), UniProt Q5J463)
Sequence of Beta-lactamase (Q5J463 whole entry): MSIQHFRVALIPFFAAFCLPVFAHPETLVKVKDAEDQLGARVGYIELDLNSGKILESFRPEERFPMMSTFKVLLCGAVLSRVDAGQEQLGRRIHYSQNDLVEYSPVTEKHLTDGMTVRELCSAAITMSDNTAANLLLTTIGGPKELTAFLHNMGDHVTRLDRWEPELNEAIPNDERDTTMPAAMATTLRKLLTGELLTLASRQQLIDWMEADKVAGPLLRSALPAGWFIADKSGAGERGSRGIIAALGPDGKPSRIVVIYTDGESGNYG

[12] = biological target: T4, Caspase-6 (Homo sapiens, UniProt P55212); test: human caspase-6 inhibitors, dose response, biochemical, VEID-R110 fluorescence, cherry-pick (AID 720632)
T4 sequence (P55212 whole entry): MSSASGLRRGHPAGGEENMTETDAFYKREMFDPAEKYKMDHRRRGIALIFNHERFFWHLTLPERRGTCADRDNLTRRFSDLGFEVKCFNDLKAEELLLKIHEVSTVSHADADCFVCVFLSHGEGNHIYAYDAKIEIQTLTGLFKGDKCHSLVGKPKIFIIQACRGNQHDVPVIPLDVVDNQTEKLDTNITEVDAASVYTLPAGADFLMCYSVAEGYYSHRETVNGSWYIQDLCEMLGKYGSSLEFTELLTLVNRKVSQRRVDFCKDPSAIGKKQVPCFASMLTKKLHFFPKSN

CCCCCCCCCCOC(=O)C[n+]1c(COc2ccccc2C)n(C)c2ccccc21
EC50 [1]: > 92.5 µM (inactive) | AC50 [2]: 2.16 µM (active) | EC50 [3]: > 92.5 µM (inactive) | EC50 [4]: > 60 µM (not active) | EC50 [5]: > 92.5 µM (inactive)

Oc1nc(Nc2ccccc2)cc2ccccc12
IC50 [6]: 0.899 µM (active) | IC50 [7]: > 80 µM (inactive) | IC50 [8]: 0.75 µM (active) | IC50 [9]: > 100 µM (not active) | IC50 [10]: 19.6 µM (active)

COc1cc(OC)c(-c2c3cc(O)c(=O)cc-3oc3cc(O)c(O)cc23)cc1OC
IC50 [11]: 2.13 µM (active) | AC50 [12]: 0.0367 µM (active)
